Where two headings read alike, the source gives them in different places.
Legend:
[1] = tested on: THP-1 macrophages; assay: Host cell toxicity in the intramacrophage assay; type: cell-based, human; details: for IC50: Homo sapiens, THP-1 host cells in intramacrophage assay, read-out: pIC50 THP-1 (converted)
[2] = tested on: HepG2 cells; assay: Mammalian cell cytotoxicity assay (CellTiter-Glo); type: cell-based, human; details: for IC50: Homo sapiens, -logIC50 mol against HepG2, read-out: PIC50 HepG2 (converted)
[3] = tested on: intra-macrophage Leishmania donovani amastigotes; assay: Intramacrophage Leishmania donovani assay (high content imaging); type: cell-based; details: Leishmania donovani
[4] = tested on: L. donovani (MHOM/SD/62/1S-CL2D, LdBOB) axenic amastigotes; assay: Leishmania donovani axenic amastigote dose response assay (resazurin); type: cell-based; details: -logIC50 mol against L. donovani (LdBOB) axenic amastigotes, read-out: pIC50 Axenic (converted)
[5] = selectivity: pIC50 InMac minus pIC50 THP-1
[6] = selectivity: pIC50 axenic minus pIC50 HepG2
[7] = intramacrophage L. donovani, read-out: pIC50 InMac (converted)
[8] = −logIC50 M, L. donovani infected THP-1 macrophages, 96 hours, read-out: pIC50 against intra-macrophage L. donovani amastigotes (converted)
[9] = selectivity, pIC50 InMac minus pIC50 THP-1
[10] = selectivity, pIC50 axenic minus pIC50 HepG2
[11] = intramacrophage L. donovani amastigotes, read-out: pIC50 InMac (converted)

Row | Structure (SMILES) | IC50 [1] | pSI v THP-1 [1, 5] | IC50 [2] | pSI v HepG2 [2, 6] | IC50 [3, 7] | IC50 [4] | pSI v HepG2 [2] | IC50 [3, 8] | pSI v THP-1 [1, 9] | pSI v HepG2 [2, 10] | IC50 [3, 11]
1 | CS(=O)(=O)c1oc(-c2ccc(F)cc2)nc1S(=O)(=O)c1ccc(Cl)cc1 [ST/1032211] | 3.63 µM | -0.07 | 17.4 µM | 1.60 | 4.27 µM | 0.437 µM |  |  |  |  | 
2 | O=C(O)C(F)(F)F.O=c1[nH]ccc2nc(NCCc3c[nH]cn3)nc(Nc3cccc(S(=O)(=O)N4CCOCC4)c3)c12 [N4347-22-1] | > 50.1 µM | 0.11 | > 100 µM |  | 38.9 µM | 10 µM | 1.00 |  |  |  | 
3 | COc1cccc(-c2csc(NC(=O)c3cccc(Cl)c3)c2C(=O)O)c1 [ST/266497] | > 50.1 µM | 0.04 | > 100 µM | 1.15 | 45.7 µM | 7.08 µM |  |  |  |  | 
4 | O=C(O)C(F)(F)F.O=S(=O)(c1ccc2c(c1)CCN(Cc1ccc(F)cc1)CC2)n1cccc1 [CS100462-069A11B16] | 31.6 µM | 0.98 | > 100 µM |  | 3.31 µM | 0.0229 µM | 3.64 |  |  |  | 
5 | CNC(=O)c1ccsc1NC(=O)c1ccc([N+](=O)[O-])s1 [compound 4] |  |  |  |  |  |  |  | 1.26 µM |  |  | 
6 | NC(=O)c1ccsc1NC(=O)c1ccc([N+](=O)[O-])s1 [compound 3] |  |  |  |  |  |  |  | 2 µM |  |  | 
7 | CN(C)S(=O)(=O)c1ccc(Cl)c(NS(=O)(=O)c2ccc(C(C)(C)C)cc2)c1 [ST/1238223] | > 50.1 µM | 0.00 | > 100 µM | 1.17 | > 50.1 µM | 6.76 µM |  |  |  |  | 
8 | O=C(O)C(F)(F)F.O=S(=O)(c1ccc2c(c1)CCN(Cc1cccnc1)CC2)n1ccc2c(F)cccc21 [CS100462-069A14B4] | 33.9 µM | 1.23 | 52.5 µM |  | 2 µM | 0.447 µM | 2.07 |  |  |  | 
9 | N#Cc1ccc(N2CCCC[C@H]2c2cccnc2)c([N+](=O)[O-])c1.O=C(O)C(F)(F)F.O=C(O)C(F)(F)F [MA102475-064A1B46] | > 50.1 µM | 1.39 | 95.5 µM |  | 2.04 µM | 5.01 µM | 1.28 |  |  |  | 
10 | CC(=O)N1N=C(COc2ccc(Cl)cc2C)OC1c1cccs1 (stereo not shown) [ST/1455408] | > 50.1 µM | 0.00 | 97.7 µM | 1.10 | > 50.1 µM | 7.76 µM |  |  |  |  | 
11 | CC(C)CCN1C(=O)C(N)C(=O)N(CC2CCCCC2)c2ccccc21 (stereo not shown) [VMTA/1987/36/2] | > 50.1 µM |  | 81.3 µM |  |  | 2 µM |  |  | 0.79 | 1.61 | 8.13 µM
12 | CNC(=O)c1ccsc1NC(=O)c1ccc([N+](=O)[O-])s1 [ST/492114] | > 50.1 µM | 1.55 | > 100 µM | 2.05 | 1.41 µM | 0.891 µM |  |  |  |  | 
13 | NC(=O)c1ccsc1NC(=O)c1ccc([N+](=O)[O-])s1 [ST/918837] | 26.9 µM |  | > 100 µM |  |  | 0.331 µM |  |  | 1.12 | 2.48 | 2.04 µM
14 | CC(=O)N1N=C(c2ccco2)OC1COc1ccc(Cl)cc1C (stereo not shown) [ST/1451140] | > 50.1 µM | 0.00 | > 100 µM | 1.16 | > 50.1 µM | 6.92 µM |  |  |  |  | 
15 | COC1(C)CCC(=Cc2ccc(Cl)cc2)CC1(O)Cn1ccnc1 (stereo not shown) [ST/1099846] | > 50.1 µM |  | 72.4 µM | 1.39 |  | 2.95 µM |  |  |  |  | 
16 | Cc1ccnc(-c2nn[nH]c2Br)c1 [LK45855-125A1] | 32.4 µM | -0.01 | > 100 µM | 1.76 | 33.1 µM | 1.74 µM |  |  |  |  | 

Row | Structure (SMILES) | IC50 [1] | pSI v THP-1 [1, 5] | IC50 [2] | pSI v HepG2 [2, 6] | IC50 [3, 7] | IC50 [4] | pSI v HepG2 [2] | IC50 [3, 8] | pSI v THP-1 [1, 9] | pSI v HepG2 [2, 10] | IC50 [3, 11]
17 | CCCCCNC(=O)c1c(O)c2ccccc2[nH]c1=O [ST/243992] | > 50.1 µM | 0.00 | > 100 µM | 1.68 | > 50.1 µM | 2.09 µM |  |  |  |  | 
18 | COc1ccc(CN2CCN(S(=O)(=O)c3ccc(OC(F)(F)F)cc3)CC2)cc1 [SC/122159] | > 50.1 µM | 0.15 | > 100 µM | 2.56 | 35.5 µM | 0.275 µM |  |  |  |  | 
19 | O=C(Nc1cccc(S(=O)(=O)Nc2ccccc2Cl)c1)c1ccc([N+](=O)[O-])o1 [ST/579040] | 12 µM | 0.03 | 22.4 µM | 1.66 | 11.2 µM | 0.49 µM |  |  |  |  | 
20 | COc1ccc(S(=O)(=O)Nc2cc([N+](=O)[O-])ccc2Cl)cc1C(C)C [ST/1153644] | > 50.1 µM | 0.11 | > 100 µM | 1.00 | 38.9 µM | 10 µM |  |  |  |  | 
21 | N#Cc1ccc(N2CCCC[C@H]2c2cccnc2)c([N+](=O)[O-])c1 [compound 5] |  |  |  |  |  |  |  | 2 µM |  |  | 
22 | O=C(O)c1ccccc1Sc1ncnc2scc(-c3ccccc3)c12 [ST/837236] | > 50.1 µM |  | > 100 µM |  |  | 9.77 µM |  |  | 0.09 | 1.01 | 40.7 µM
23 | O=C(Nc1scc(-c2ccc(Br)cc2)c1C(=O)O)c1ccccc1F [ST/656010] | > 50.1 µM | 0.00 | > 100 µM | 1.08 | > 50.1 µM | 8.32 µM |  |  |  |  | 
24 | Cc1cc(C)n2nc(S(=O)(=O)Nc3ccccc3[N+](=O)[O-])nc2n1 [ST/512740] | > 50.1 µM | 0.00 | > 100 µM | 1.03 | > 50.1 µM | 9.33 µM |  |  |  |  | 
25 | COc1cc(OC)cc(C(=O)Nc2nnc(-c3ccccc3Cl)o2)c1 [ST/709938] | > 50.1 µM | 0.28 | 85.1 µM | 2.04 | 26.3 µM | 0.776 µM |  |  |  |  | 
26 | Cc1ncccc1Oc1ncc(Cl)cc1S(=O)(=O)Nc1cccc(Cl)c1F [AV207107-107A1] | > 50.1 µM | 0.00 | > 100 µM | 1.09 | > 50.1 µM | 8.13 µM |  |  |  |  | 
27 | O=C(Nc1ccc(Cl)c(Cl)c1)Nc1ccc(F)c([N+](=O)[O-])c1 [ST/1276812] |  |  | 10 µM | 0.45 |  | 3.55 µM |  |  |  |  | 
28 | Clc1cccc(Nc2nc(-c3ccncc3)cs2)c1 [ST/755059] |  |  | 32.4 µM | 0.68 |  | 6.76 µM |  |  |  |  | 
29 | Cc1cccc2sc(N(Cc3cccnc3)C(=O)C3CCCCC3)nc12 [ST/712281] |  |  | 85.1 µM | 1.43 |  | 3.16 µM |  |  |  |  | 
30 | COc1ccc(Cl)cc1NC(=O)Nc1cccc(Br)c1 [C2180/12/1] |  |  | 66.1 µM | 1.14 |  | 4.79 µM |  |  |  |  | 
31 | Cc1[nH]c2ccccc2c(=O)c1Cc1ccc(OC(F)(F)F)cc1 [4598W 92C*A] |  |  | 95.5 µM | 1.79 |  | 1.55 µM |  |  |  |  | 
32 | O=C(Nc1cc(-c2nc3ccccc3[nH]2)ccc1Cl)c1ccc(Cl)c([N+](=O)[O-])c1 [ST/1193938] |  |  | 22.9 µM | 0.42 |  | 8.71 µM |  |  |  |  | 

From publication PMC5834442, “Identifying inhibitors of the Leishmania inositol phosphorylceramide synthase with antiprotozoal activity using a yeast-based assay and ultra-high throughput screening platform” (Scientific Reports, 2018)
